Patent US9371292B2, “Quinazoline derivative, preparation method therefor, intermediate, composition and application thereof” (SHANGHAI PHARMACEUTICALS HOLDINGS CO., LTD., priority 2011, dated 2016)

Key:
EGFR tyrosine kinase = biological target: T1, EGFR tyrosine kinase (Homo sapiens, UniProt P00533); test: HTRF assay, inhibition of EGFR tyrosine kinase; assay type: biochemical; conditions: HTRF method
T1 construct: purchased Sigma Aldrich
Method: The activity of inhibitory against the kinase of the test compound is expressed by IC50. The assays are performed by Homogeneous time-resolved fluorescence (HTRF) method which is as follows: a series of synthesized analogues with gradient concentration are incubated for 5 minutes in enzymatic solution with specific concentration (for EGFR) at room temperature. Then proper amount of substrate and ATP are added into the reaction mixture to start the enzyme reaction. The assays of the specific concentration of compound is measured by Flexstation III of Molecular device company after the stop buffer and detecting liquid are added to the enzyme reaction system and hatch at room temperature for 1 hour. And the activity of inhibitory against the kinase of the test compound with different concentration will be calculated, then according to the 4-parameter equation, fit the inhibitory activity of the test compound with different concentration to get the IC50. EGFR is purchased from Sigma Aldrich. The HTRF KinEASE-TK is purchased from Cisbio Bioassays. ATP is purchased from Sigma Aldrich.

A431 cell = test: Proliferation inhibition, A431 cells (CellTiter-Glo); assay type: cell-based; conditions: Homo sapiens, A-431, 48 hours
Method: (§1) This example is to determine the proliferation inhibitory activity against wide type of high expression cell lines A431 of EGFR and mutant cell lines NCI-H1975^L858RT790M, the proliferation inhibitory activity in cell-based level of compound is expressed by IC50. The test method is as follows: both cell lines are purchased from American type culture collection (ATCC). The cells are seeded in a white and opaque 384-well culture plate with a proper concentration (A431: 20000 cells/ml medium; H1975: 15000 cells/ml medium), cultured at 37° C. with 5% CO2 for 24 hrs, a series of medicine with gradient concentration is added, generally 10 concentrations, cultured for another 48 hours under the previous conditions. The assays of the proliferation inhibitory activity against the A431 and H1975 cell of the test compounds are performed by the CellTiter-Glo Luminescent Cell Viability Assay and calculate the proliferation inhibitory activity of compound with different concentrations. CellTiter-Glo Luminescent Cell Viability Assay is purchased from Promega. Fit the data of proliferation inhibitory activity against A431 and H1975 of compounds with different concentrations with 4-parameter equation.

[1] = system: NCI-H1975 L858R T790M cell; test: Proliferation inhibition, H1975 cells (CellTiter-Glo); assay type: cell-based; conditions: Homo sapiens, 48 hours
Method: as §1

T1 sequence (P00533 25-1210): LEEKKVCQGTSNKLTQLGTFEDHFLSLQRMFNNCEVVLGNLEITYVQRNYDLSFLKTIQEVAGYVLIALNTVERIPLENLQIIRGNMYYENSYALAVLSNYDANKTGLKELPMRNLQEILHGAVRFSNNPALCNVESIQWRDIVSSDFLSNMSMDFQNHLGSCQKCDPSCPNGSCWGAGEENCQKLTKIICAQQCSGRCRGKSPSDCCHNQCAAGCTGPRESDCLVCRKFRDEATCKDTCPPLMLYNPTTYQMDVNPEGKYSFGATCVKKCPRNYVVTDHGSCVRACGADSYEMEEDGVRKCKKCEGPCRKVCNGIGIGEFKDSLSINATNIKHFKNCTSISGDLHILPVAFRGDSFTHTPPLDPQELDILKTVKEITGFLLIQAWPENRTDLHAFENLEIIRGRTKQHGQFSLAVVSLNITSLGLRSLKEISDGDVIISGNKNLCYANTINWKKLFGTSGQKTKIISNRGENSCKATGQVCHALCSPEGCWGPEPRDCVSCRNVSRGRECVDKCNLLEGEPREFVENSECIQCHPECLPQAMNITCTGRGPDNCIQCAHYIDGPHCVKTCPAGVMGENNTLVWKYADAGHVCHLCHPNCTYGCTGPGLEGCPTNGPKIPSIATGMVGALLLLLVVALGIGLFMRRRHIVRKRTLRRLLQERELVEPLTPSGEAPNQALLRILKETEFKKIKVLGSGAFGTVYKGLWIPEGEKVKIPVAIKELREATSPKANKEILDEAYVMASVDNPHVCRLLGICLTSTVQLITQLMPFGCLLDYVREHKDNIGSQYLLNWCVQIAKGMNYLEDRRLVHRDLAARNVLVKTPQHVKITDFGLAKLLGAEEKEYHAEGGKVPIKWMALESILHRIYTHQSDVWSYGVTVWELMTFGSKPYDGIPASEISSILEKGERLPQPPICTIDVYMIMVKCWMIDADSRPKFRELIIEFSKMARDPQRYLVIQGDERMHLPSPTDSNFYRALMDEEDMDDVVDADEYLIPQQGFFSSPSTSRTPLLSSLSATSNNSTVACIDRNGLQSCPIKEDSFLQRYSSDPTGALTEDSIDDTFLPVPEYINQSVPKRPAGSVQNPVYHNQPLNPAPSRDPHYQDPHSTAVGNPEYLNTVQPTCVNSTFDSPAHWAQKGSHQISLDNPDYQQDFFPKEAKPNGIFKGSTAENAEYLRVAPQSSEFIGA

Row | IC50 (EGFR tyrosine kinase) [nM] | IC50 (A431 cell) [nM] | IC50 [1] [nM] | SMILES
1 | 0.57 | – | – | CCOc1cc2ncnc(Nc3ccc(OCc4ccccn4)c(Cl)c3)c2cc1NC(=O)/C(F)=C/CN(C)C [Compound 19-1, (Z)-N-(4-((3-chloro-4-(pyridin-2-ylmethoxy)phenyl)amino)-7-ethoxyquinazolin-6-yl)-4-(dimethylamino)-2-fluorobut-2-enamide]
2 | 0.89 | – | 1100 | CCOc1cc2ncnc(Nc3ccc(OCc4ccccn4)c(Cl)c3)c2cc1NC(=O)/C(F)=C\CN(C)C [Compound 19-2, (E)-N-(4-((3-chloro-4-(pyridin-2-ylmethoxy)phenyl)amino)-7-ethoxyquinazolin-6-yl)-4-(dimethylamino)-2-fluorobut-2-enamide]
3 | – | 12000 | 4300 | O=C(Nc1cc2c(Nc3ccc(F)c(Cl)c3)ncnc2cc1O[C@H]1CCOC1)/C(F)=C/CN1CCOCC1 [Compound 20-1, (S,Z)-N-(4-((3-chloro-4-fluorophenyl)amino)-7-((tetrahydrofuran-3-yl)oxy)quinazolin-6-yl)-2-fluoro-4-morpholinobut-2-enamide]
4 | – | > 100000 | 2300 | O=C(Nc1cc2c(Nc3ccc(F)c(Cl)c3)ncnc2cc1O[C@H]1CCOC1)/C(F)=C\CN1CCOCC1 [Compound 20-2, (S,E)-N-(4-((3-chloro-4-fluorophenyl)amino)-7-((tetrahydrofuran-3-yl)oxy)quinazolin-6-yl)-2-fluoro-4-morpholinobut-2-enamide]
5 | 0.16 | 98000 | 1200 | CN(C)C/C=C(\F)C(=O)Nc1cc2c(Nc3ccc(F)c(Cl)c3)ncnc2cc1O[C@H]1CCOC1 [Compound 21-1, (S,Z)-N-(4-((3-chloro-4-fluorophenyl)amino)-7-((tetrahydrofuran-3-yl)oxy)quinazolin-6-yl)-4-(dimethylamino)-2-fluorobut-2-enamide]
6 | 0.31 | 3100 | 1500 | CN(C)C/C=C(/F)C(=O)Nc1cc2c(Nc3ccc(F)c(Cl)c3)ncnc2cc1O[C@H]1CCOC1 [Compound 21-2, (S,E)-N-(4-((3-chloro-4-fluorophenyl)amino)-7-((tetrahydrofuran-3-yl)oxy)quinazolin-6-yl)-4-(dimethylamino)-2-fluorobut-2-enamide]
7 | 0.53 | 8100 | 3700 | COc1cc2ncnc(Nc3ccc(F)c(Cl)c3)c2cc1NC(=O)/C(F)=C/CN1CCOCC1 [Compound 22-1, (Z)-N-(4-((3-chloro-4-fluorophenyl)amino)-7-methoxyquinazolin-6-yl)-2-fluoro-4-morpholinobut-2-enamide]
8 | 0.3 | 2900 | 2400 | COc1cc2ncnc(Nc3ccc(F)c(Cl)c3)c2cc1NC(=O)/C(F)=C\CN1CCOCC1 [Compound 22-2, (E)-N-(4-((3-chloro-4-fluorophenyl)amino)-7-methoxyquinazolin-6-yl)-2-fluoro-4-morpholinobut-2-enamide]

Continued, compound first:

Row | SMILES | IC50 (EGFR tyrosine kinase) [nM] | IC50 (A431 cell) [nM] | IC50 [1] [nM]
9 | C=C(F)C(=O)Nc1cc2c(Nc3ccc(F)c(Cl)c3)ncnc2cc1OC1CCN(C)C1 (stereo in doubt) [Compound 64, (S)-N-[4-(3-chloro-4-fluoro-phenylamino)-7-(1-methyl-pyrrolidin-3-yloxy)-quinazolin-6-yl]-2-fluoro-acrylamide] | 4.5 | 3600 | 2700
10 | COc1cc2ncnc(Nc3ccc(F)c(Cl)c3)c2cc1NC(=O)/C(F)=C/CN1CCCCC1 [Compound 8-1, (Z)—N-(4-((3-chloro-4-fluorophenyl)amino)-7-methoxyquinazolin-6-yl)-2-fluoro-4-(piperidin-1-yl)but-2-enamide] | – | – | 1000
11 | COc1cc2ncnc(Nc3ccc(F)c(Cl)c3)c2cc1NC(=O)/C(F)=C\CN1CCCCC1 [Compound 8-2, (E)-N-(4-((3-chloro-4-fluorophenyl)amino)-7-methoxyquinazolin-6-yl)-2-fluoro-4-(piperidin-1-yl)but-2-enamide] | – | 2100 | –
12 | C=C(F)C(=O)Nc1cc2c(Nc3ccc(Br)cc3F)ncnc2cc1OCCCN1CCOCC1 [Compound 23, N-[4-(4-Bromo-2-fluoro-phenylamino)-7-(3-morpholin-4-yl-propoxy)-quinazolin-6-yl]-2-fluoro-acrylamide] | 1.6 | 1300 | 3000
13 | C=C(F)C(=O)Nc1cc2c(Nc3ccc(F)c(Cl)c3F)ncnc2cc1OCCCN1CCOCC1 [Compound 24, N-[4-(3-chloro-2,4-difluoro-phenylamino)-7-(3-morpholin-4-yl-propoxy)-quinazolin-6-yl]-2-fluoro-acrylamide] | 0.19 | 1300 | 2200
14 | C#Cc1cccc(Nc2ncnc3cc(OCCCN4CCOCC4)c(NC(=O)C(=C)F)cc23)c1 [Compound 25, N-[4-(3-ethynyl-phenylamino)-7-(3-morpholin-4-yl-propoxy)-quinazolin-6-yl]-2-fluoro-acrylamide] | 0.19 | 1200 | 1900
15 | C=C(F)C(=O)Nc1cc2c(Nc3cccc(Cl)c3F)ncnc2cc1OCCCN1CCOCC1 [Compound 26, N-[4-(3-chloro-2-fluoro-phenylamino)-7-(3-morpholin-4-yl-propoxy)-quinazolin-6-yl]-2-fluoro-acrylamide] | 0.35 | 4500 | 5400
16 | C=C(F)C(=O)Nc1cc2c(Nc3cc(OC)c(Cl)cc3Cl)ncnc2cc1OCCCN1CCOCC1 [Compound 27, N-[4-(2,4-dichloro-5-methoxy-phenylamino)-7-(3-morpholin-4-yl-propoxy)-quinazolin-6-yl]-2-fluoro-acrylamide] | – | – | 2700
17 | C=C(F)C(=O)Nc1cc2c(Nc3cccc(Br)c3)ncnc2cc1OCCCN1CCOCC1 [Compound 28, N-[4-(3-bromo-phenylamino)-7-(3-morpholin-4-yl-propoxy)-quinazolin-6-yl]-2-fluoro-acrylamide] | 0.32 | 29000 | 1400
18 | C=C(F)C(=O)Nc1cc2c(Nc3ccc(OCc4cccc(F)c4)c(Cl)c3)ncnc2cc1OCCCN1CCOCC1 [Compound 29, N-[4-[3-chloro-4-(3-fluoro-benzyloxy)-phenylamino]-7-(3-morpholin-4-yl-propoxy)-quinazolin-6-yl]-2-fluoro-acrylamide] | 3.3 | 5900 | 1900
19 | C=C(F)C(=O)Nc1cc2c(Nc3ccc(Cl)c(Cl)c3F)ncnc2cc1OCCCN1CCOCC1 [Compound 30, N-[4-(3,4-dichloro-2-fluoro-phenylamino)-7-(3-morpholin-4-yl-propoxy)-quinazolin-6-yl]-2-fluoro-acrylamide] | 0.22 | 520 | 1500
20 | C=C(F)C(=O)Nc1cc2c(Nc3ccc(F)cc3F)ncnc2cc1OCCCN1CCOCC1 [Compound 31, N-[4-(2,4-difluoro-phenylamino)-7-(3-morpholin-4-yl-propoxy)-quinazolin-6-yl]-2-fluoro-acrylamide] | 1.4 | 6500 | 6000
21 | C=C(F)C(=O)Nc1cc2c(Nc3ccc(F)c(F)c3F)ncnc2cc1OCCCN1CCOCC1 [Compound 32, N-[7-(3-morpholin-4-yl-propoxy)-4-(2,3,4-trifluoro-phenylamino)-quinazolin-6-yl]-2-fluoro-acrylamide] | 0.72 | 4200 | 5600
22 | C=C(Cl)C(=O)Nc1cc2c(Nc3ccc(F)c(Cl)c3F)ncnc2cc1OCCCN1CCOCC1 [Compound 34, N-[4-(3-chloro-2,4-difluoro-phenylamino)-7-(3-morpholin-4-yl-propoxy)-quinazolin-6-yl]-2-chloro-acrylamide] | 0.65 | > 100000 | 5200
23 | C=C(Cl)C(=O)Nc1cc2c(Nc3ccc(F)c(Cl)c3)ncnc2cc1OCCCN1CCOCC1 [Compound 35, N-[4-(3-chloro-4-fluoro-phenylamino)-7-(3-morpholin-4-yl-propoxy)-quinazolin-6-yl]-2-chloro-acrylamide] | 0.97 | > 100000 | 8500
24 | C=C(Cl)C(=O)Nc1cc2c(Nc3ccc(F)c(Cl)c3)ncnc2cc1OCCCN1CCOCC1 [Compound 41, N-[4-(3-chloro-4-fluoro-phenylamino)-7-(3-morpholin-4-yl-propoxy)-quinazolin-6-yl]-2-chloro-acrylamide] | 0.37 | – | –
25 | C=C(F)C(=O)Nc1cc2c(Nc3ccc(F)c(Cl)c3)ncnc2cc1OC1CCN(C)CC1 [Compound 49, N-[4-(3-chloro-4-fluoro-phenylamino)-7-(1-methyl-piperidin-4-yloxy)-quinazolin-6-yl]-2-fluoro-acrylamide] | – | 8600 | 5600
